Data taken from US20160102067A1, “OXIRAN AMINES” (V-BIOTEK HOLDING APS, priority 2012, published 2016).
Converted amounts (≈) assume the structure as drawn.

What was measured:
[1] = system: MSSA (meticillin-sensitive staphylococcus aureusis); experiment: MIC determination for MSSA; type: cell-based; conditions: Staphylococcus aureus, dilution series, read-out: MIC (Minimum Inhibitory Concentration)
Experimental: (§1) 15.3 mg 2-Methyl-3-nonyloxiran-2-amine obtained in example 6 was mixed with 100 μl DMSO (Dimethyl sulfoxid) to obtain a stock solution. The stock solution was used for determining the MIC (Minimum Inhibitory Concentration) for MRSA (meticillin-resistant staphylococcus aureusis) and MSSA (meticillin-sensitive staphylococcus aureusis).

[2] = system: MRSA (meticillin-resistant staphylococcus aureusis); experiment: MIC determination for MRSA; type: cell-based; conditions: Staphylococcus aureus, dilution series, read-out: MIC (Minimum Inhibitory Concentration)
Experimental: as §1

P. falciparum = experiment: [3H]-hypoxanthine incorporation, growth rate of P. falciparum (Example 7); type: cell-based, Plasmodium falciparum; conditions: [3H]-hypoxanthine incorporation after 48 hrs, 3 fold dilution series, FIG. 15
Experimental: 15.3 mg 2-Methyl-3-nonyloxiran-2-amine obtained in example 6 was mixed with 100 μl DMSO (Dimethyl sulfoxid) to obtain a stock solution. A first solution was prepared by mixing 100 uL of the stock solution with 400 uL of parasite media. Subsequently this solution was diluted in 15 dilution series, each dilution serie being diluted 3 fold. The same protecol as used in example 6 was applied for this experiment.
Specifically, the incorporation of [3H]-hypoxanthine was used as a measure for the life conditions of P. falciparum. Parasites were syncronised to ring stages by […] treatment and then incubated at 0.3% parasitemia at 5% haematocrit in 100 uL of growth medium containing [3H]-hypoxanthine over one cycle of replication, i.e. 48 hrs. Each experiment was performed in triplets.

[3] = system: erythrocytic stages of P. falciparum; experiment: [3H]-hypoxanthine incorporation assay with extract, P. falciparum strain K1; type: cell-based, Plasmodium falciparum; conditions: extract at a dilution of 160 times
Experimental: In vitro activity of extract dilutions were tested against erythrocytic stages of P. falciparum by a modified [3H]-hypoxanthine incorporation assay (Scala, F., Fattorusso, E., Menna, M., Taglialatela-Scafati, O., Tiemey, M., Kaiser, M., Tasdemir, D., 2010. Bromopyrrole alkaloids as lead compounds against protozoan parasites. Marine Drugs 8, 2162-2174.) using the […] strain K1. The standard drug used as a positive control was amodiaquine.
Briefly, parasite cultures incubated in RPMI 1640 medium with 5% Albumax (without hypoxanthine) were exposed to serial extract dilutions in microtiter plates. After 48 h of incubation at 37 ° C. in a reduced oxygen atmosphere, 0.5 μCi 3H-hypoxanthine was added to each well. Cultures were incubated for a further 24 h before they were harvested onto glass-fiber filters and washed with distilled water. The radioactivity was counted using a Betaplate™ liquid scintillation counter (Wallac, Zurich, Switzerland). The results were recorded as counts per minute (CPM) per well at each drug concentration and expressed as percentage of the untreated controls. IC50 values were calculated from graphically plotted dose-response curves. Each IC50 value obtained is the mean of at least two separate experiments performed in duplicate (the variation is maximum 20%).

CCCCCCCCCC1OC1(C)N (stereo not shown) [2-Methyl-3-nonyloxiran-2-amine]
MIC [1]: 9.6 mg/mL (≈ 48.2 mM)
MIC [2]: 38.3 mg/mL (≈ 192 mM)
growth rate of P. Falciparum (P. falciparum): concentration dependent inhibition

CCN(CC)Cc1cc(Nc2ccnc3cc(Cl)ccc23)ccc1O [amodiaquine]
[3H]-hypoxanthine incorporation value [3]: 47.5 CPM
